Assay results taken from patent US9170257B2 (priority 2012, dated 2015).
Like-named read-outs stand apart in the source and are kept apart here.

Key:
[1] = Plasma pharmacokinetics of curcumin and THC during and after intravenous infusion of liposomal curcumin; type: in vivo, Beagle dogs
Description: (§1) The results and analysis for the study are presented for intravenous infusion dosing of a total dose of 10 mg/kg infused over a period of either 2 or 8 hours. Plasma levels of curcumin and its metabolite, THC were measured at timed intervals post-dosing.
For the 2 hour infusion, blood samples were taken at predose and 0.25, 0.5, 1.5 and at 2 hours during infusion and at 15 minutes post-infusion. For the 8 hour infusion, blood samples were taken at predose and 0.25, 0.5, 1.5, […] and at 8 hours during infusion and at 15 minutes post-infusion.
(§2) Bioanalysis was performed on two sets of samples, one set that was treated with phosphoric acid and one set that was not treated with phosphoric acid. […] Values that were below the limit of quantification were assigned a value of 0.
Plasma concentration vs. time profiles were analyzed using (unless otherwise stated) the data from 4 dogs. Plasma profiles for the test articles are presented as the mean data±SE of 4 dogs. Average plasma concentrations were used to perform the PK analysis. Plasma concentration vs. time profiles were analyzed and the PK parameters estimated using WinNonlin Version 5.2.1 employing the intravenous infusion model with first order elimination. Unless stated otherwise, the plasma concentration-time profiles for the test articles are presented as the mean data±SE of 4 dogs.

[2] = Plasma, urine and bile levels of curcumin and THC 15 minutes post-infusion; type: in vivo, Beagle dogs; conditions: for Plasma level / concentration at 15 min: mean±SE; for concentration at 15 min / Kp: both sexes, dog, in vivo, 10 mg/kg; for concentration at 15 min: Beagle; for Kp: beagle
Description: as §1, §2
Fifteen minutes following either the 2 hour or 8 hour infusion, blood, urine and bile samples were taken, prior to the dogs being necropsied and organs removed for the isolation of tissues. Multiple samples of tissue weighing approximately 1 gram were removed and snap frozen in the presence or absence of phosphoric acid (H3PO4). For all tissue samples, the levels of curcumin and THC were determined using a method developed by the Bioanalytical Department at Nucro-Technics. […] Values that were below the limit of quantification were assigned a value of 0. […] Tissue distribution data was analyzed using, unless stated, the data from 4 dogs and are presented as the mean±standard error (S.E.).

[3] = Bench stability in Phase 1 human plasma samples; type: in vitro ADME; conditions: human plasma with Na-phosphate, room temperature, a couple of hours
Description: After the addition of 50 μl 5% H3PO4 to 950 ml plasma the pH was 4.4.

[4] = both sexes, Beagle, dog, in vivo, 10 mg/kg, 1.25 mg/kg/hr, mean±SE, read-out: [Plasma + PO4]
[5] = both sexes, Beagle, dog, in vivo, 10 mg/kg, 1.25 mg/kg/hr, mean±SE, read-out: [Plasma]
[6] = both sexes, Beagle, dog, in vivo, 10 mg/kg, 5 mg/kg/hr, mean±SE, read-out: [Plasma + PO4]
[7] = both sexes, Beagle, dog, in vivo, 10 mg/kg, 5 mg/kg/hr, mean±SE, read-out: [Plasma]

COc1cc(CCC(=O)CC(=O)CCc2ccc(O)c(OC)c2)ccc1O [THC, tetrahydrocurcumin]
Ke ([1]; 2 hour i.v. infusion, total dose 10 mg/kg, fitted): 1.4 h⁻¹
ratio of THC to curcumin based on AUC ([1]; 2 hour infusion): 9.6
ratio of THC to curcumin based on AUC ([1]; 8 hour infusion): 6.3
Plasma THC levels higher than curcumin ([1]; at both infusion rates (2 and 8 hours)): 6.3-9.6 fold
concentration at 15 min [1, 4]: 59 ± 24 ng/mL
concentration at 15 min [1, 5]: 72 ± 15 ng/mL
concentration at 30 min [1, 4]: 121 ± 28 ng/mL
concentration at 30 min [1, 5]: 63 ± 15 ng/mL
concentration at 90 min [1, 4]: 293 ± 73 ng/mL
concentration at 90 min [1, 5]: 64 ± 14 ng/mL
concentration at 2 hr [1, 4]: 226 ± 64 ng/mL
concentration at 2 hr [1, 5]: 68 ± 11 ng/mL
concentration at 4 hr [1, 4]: 193 ± 127 ng/mL
concentration at 4 hr [1, 5]: 77 ± 8 ng/mL
concentration at 6 hr [1, 4]: 64 ± 10 ng/mL
concentration at 6 hr [1, 5]: 0 ng/mL
concentration at 8 hr [1, 4]: 62 ± 26 ng/mL
concentration at 8 hr [1, 5]: 67 ± 29 ng/mL
concentration at 15 min [1, 6]: 284 ± 89 ng/mL
concentration at 15 min [1, 7]: 483 ± 50 ng/mL
concentration at 30 min [1, 6]: 1120 ± 318 ng/mL
concentration at 30 min [1, 7]: 566 ± 77 ng/mL
concentration at 90 min [1, 6]: 2350 ± 441 ng/mL
concentration at 90 min [1, 7]: 891 ± 238 ng/mL
concentration at 2 hr [1, 7]: 454 ± 79 ng/mL
AUC ([1]; both sexes, Beagle, dog, in vivo, iv, 10 mg/kg, 2 hr infusion + phosphate, AUC to 15 min post-infusion, read-out: AUC): 3800 ng·h/mL
AUC ([1]; both sexes, Beagle, dog, in vivo, iv, 10 mg/kg, 8 hr infusion + Phosphate, AUC to 15 min post-infusion, read-out: AUC): 1170 ng·h/mL
AUC ([1]; both sexes, Beagle, dog, in vivo, iv, 10 mg/kg, 8 hr infusion, 10 mg/kg, plasma without phosphoric acid, AUC to 15 min post-infusion, read-out: AUC): 411 ng·h/mL
Cmax ([1]; both sexes, Beagle, dog, in vivo, iv, 10 mg/kg, 8 hr infusion, plasma without phosphoric acid, observed, read-out: Cmax): 77 ng/mL
concentration at 2 h ([1]; both sexes, beagle, dog, in vivo, 10 mg/kg, 5 mg/kg/hr, 2 hr (end of infusion), mean±SE, read-out: [Plasma + PO4]): 2980 ± 852 ng/mL
AUC ([1]; both sexes, beagle, dog, in vivo, iv, 10 mg/kg, 2 hour i.v. infusion, total dose 10 mg/kg, fitted, first-order elimination infusion model, read-out: AUC (estimated PK parameter)): 5180 ng·h/mL
Cmax ([1]; both sexes, beagle, dog, in vivo, iv, 10 mg/kg, 2 hour i.v. infusion, total dose 10 mg/kg, fitted, first-order elimination infusion model, read-out: Cmax (estimated PK parameter)): 2430 ng/mL
AUC ([1]; both sexes, beagle, dog, in vivo, iv, 10 mg/kg, 2 hour infusion, + phosphoric acid, read-out: calculated AUC (observed)): 3800 ng·h/mL
Cmax ([1]; both sexes, beagle, dog, in vivo, iv, 10 mg/kg, 2 hr infusion + phosphate, observed, read-out: Cmax): 2980 ng/mL
AUC ([1]; both sexes, beagle, dog, in vivo, iv, 10 mg/kg, 2 hr infusion, 10 mg/kg, plasma without phosphoric acid, AUC to 15 min post-infusion, read-out: AUC): 1320 ng·h/mL
Cmax ([1]; both sexes, beagle, dog, in vivo, iv, 10 mg/kg, 2 hr infusion, plasma without phosphoric acid, observed, read-out: Cmax): 891 ng/mL
Cmax ([1]; both sexes, beagle, dog, in vivo, iv, 10 mg/kg, 8 hr infusion + Phosphate, observed, read-out: Cmax): 293 ng/mL
MRT ([1]; both sexes, beagle, dog, in vivo, iv, 2 hour i.v. infusion, total dose 10 mg/kg, fitted, read-out: MRT): 42 min
half-life ([1]; both sexes, beagle, dog, in vivo, iv, 2 hour i.v. infusion, total dose 10 mg/kg, fitted, read-out: t1/2(e) (converted)): 30 min
ratio of plasma THC to curcumin ([1]; two infusion rates): 6.3-9.6
Plasma level ([2]; 15 min after 2 hour infusion, + H3PO4): 1167 ± 379 ng/mL
Plasma level ([2]; 15 min after 8 hour infusion, no H3PO4): 20 ± 4^2 ng/mL
concentration at 15 min ([2]; 15 min after 2 hour infusion, + H3PO4, read-out: Bile level): 391 ± 197 ng/mL
concentration at 15 min ([2]; 15 min after 2 hour infusion, + H3PO4, read-out: Urine level): 3590 ± 1080 ng/mL
concentration at 15 min ([2]; 15 min after 2 hour infusion, no H3PO4, read-out: Bile level): 187 ± 74 ng/mL
concentration at 15 min ([2]; 15 min after 2 hour infusion, no H3PO4, read-out: Plasma level): 38 ± 4 ng/mL
concentration at 15 min ([2]; 15 min after 2 hour infusion, no H3PO4, read-out: Urine level): 6420 ± 1450 ng/mL
concentration at 15 min ([2]; 15 min after 8 hour infusion, + H3PO4, read-out: Bile level): 168 ± 53 ng/mL
concentration at 15 min ([2]; 15 min after 8 hour infusion, + H3PO4, read-out: Plasma level): 142 ± 122 ng/mL
concentration at 15 min ([2]; 15 min after 8 hour infusion, + H3PO4, read-out: Urine level): 621 ± 206 ng/mL
concentration at 15 min ([2]; 15 min after 8 hour infusion, no H3PO4, read-out: Bile level): 84 ± 12 ng/mL
concentration at 15 min ([2]; 15 min after 8 hour infusion, no H3PO4, read-out: Urine level): 2450 ± 84 ng/mL
Kp ([2]; higher infusion rate (5 mg/kg/hr), read-out: bile to plasma concentration ratio): 1.2
Kp ([2]; higher infusion rate (5 mg/kg/hr), read-out: urine to plasma concentration ratio): 4.4
Kp ([2]; low infusion rate (1.25 mg/kg/hr), read-out: bile to plasma concentration ratio): 0.3
Kp ([2]; low infusion rate (1.25 mg/kg/hr), read-out: urine to plasma concentration ratio): 3.1
bench stability [3]: minimal
